Patent US20040229934A1, “Method of reducing type 2 diabetes in high risk patients” (priority 2002, published 2004)

What was measured:
[1] = system: patients older than 55 years without known diabetes but with vascular disease; assay: Heart Outcomes Prevention Evaluation (HOPE) trial: new diagnosis of diabetes; type: in vivo; conditions: for New Diabetes With Glycated Hemoglobin ≧110% ULN, RR (95% CI) / New Diabetes With Oral Agents or Insulin and Glycated Hemoglobin ≧110% ULN, RR (95% CI) / New Diabetes With Oral Agents or Insulin, RR (95% CI) / New Diabetes, RR (95% CI): vs placebo
Description: The design of the Heart Outcomes Prevention Evaluation (HOPE) trial has been described in detail in previous publications. Briefly, individuals who were 55 years or older with no evidence of left ventricular dysfunction or heart failure and who had evidence of vascular disease or who had diabetes and 1 other risk factor were eligible as long as they had no indication or contraindication to receiving an ACE-inhibitor. The study was conducted in […] in 19 countries from 1994 to 1999. All patients provided written informed consent. Of 10576 eligible patients who participated in a run-in period during which they received 2.5 mg ramipril once daily for 1 week followed by matching placebo for 10 to 14 days, 1035 (9.8%) were excluded from randomization (3.2% for side effects, 3.7% for lack of consent). […] This Example focuses primarily on the latter group of patients. Of these patients, 5720 were randomized to receive up to 10 mg of ramipril once per day or equivalent placebo. One hundred sixty-seven patients who were randomized to receive a low dose (2.5 mg/day) of ramipril as part of the Study to Evaluate Carotid Ultrasound changes with Ramipril and Vitamin E (SECURE). All randomized patients were also randomized to receive 400 IU of Vitamin E or placebo. Follow-up visits occurred at 1 month and 6 months after randomization and then every 6 months (mean follow-up of 4.5 years). At each visit, we documented whether the diagnosis of diabetes had been made since the last visit. The primary outcome of this analysis is a new diagnosis of diabetes recorded on the basis of self-report. […] Hemoglobin A1c (HbA1c) levels and medications used among those diagnosed as having diabetes were also recorded. The HbA1c, levels were determined locally. Values higher than 110% of the upper limit of normal for each laboratory were considered to be biochemical confirmation of diabetes. Survival curves utilizing the Kaplan Meier and log-rank procedures were used to describe and compare the results in the 2 treatment groups. Because of the factorial design, all analyses were stratified for randomization to vitamin E or placebo. Subgroup analyses were conducted using tests of interaction in the Cox regression model. Design, Setting and Participants. The randomized, controlled Heart Outcomes Prevention Evaluation trial of 5720 patients older than 55 years without known diabetes but with vascular disease who were followed up for a mean of 4.5 years. The study included 267 hospitals in 19 countries and was conducted between 1994 and 1999. Intervention. Patients were randomly assigned to receive ramipril, up to 10 mg/d (n=2837), or I Main Outcome Measure. Diagnosis of diabetes determined from self-report at follow-up visits every 6 months, compared between the 2 groups.

patients with diabetes = assay: HOPE trial: HbA1c levels among the patients with diabetes; type: in vivo; conditions: serial annual recordings, first 2 years
Description: The Study to Evaluate Carotid Ultrasound changes in patients treated with Ramipril and vitamin E (SECURE) in which fasting glucose increased more with placebo (15.8 mg/dL [0.41 mmols]) than with ramipril (9.6 mg/dL (0.25 mmols]; P=0.03). Among the patients with diabetes in the HOPE study, there was a significant reduction in HbA1c levels during serial annual recordings occurred during the first 2 years (absolute difference, 0.2%). In the UK Prospective Diabetes Study (UKPDS) and in the Captopril Prevention Project, patients randomized to receive ACE inhibitors had lower levels of HbA1c or less development of diabetes compared with those taking β-blockers or diuretics. However, it is not clear whether the differences in development of diabetes observed in these studies are due to a protective effect of ACE inhibitors or an adverse effect of β-blockers or diuretics.

[2] = controlling for primary events and development of MA or ON
[3] = ramipril up to 10 mg/d, n=2837, mean follow-up 4.5 years

CCOC(=O)[C@H](CCc1ccccc1)N[C@@H](C)C(=O)N1[C@H](C(=O)O)C[C@@H]2CCC[C@@H]21 [ramipril]
RR, footnote | | (New Diabetes With Oral Agents or Insulin and Glycated Hemoglobin ≧110% ULN): new diabetes with patient taking glucose-lowering therapy [1, 2]: | |Controlling for primary events and development of MA or ON, new diabetes with patient taking glucose-lowering therapy had a 0.52 RR (95% CI, 35-0.78). | RR, footnote § (New Diabetes With Oral Agents or Insulin): new diabetes with patient taking glucose-lowering therapy [1, 2]: §Controlling for primary events and development of MA or ON, new diabetes with patient taking glucose-lowering therapy had a 0.58 RR (95% CI, 42-0.79). | RR, footnote † (New Diabetes): new diabetes with glycated hemoglobin 110% [1, 2]: †Controlling for primary events and development of MA or ON, new diabetes with glycated hemoglobin 110% had a 0.67 RR (95% CI, 0..52-0.86). | RR, footnote ‡ (New Diabetes With Glycated Hemoglobin ≧110% ULN): new diabetes with patient taking glucose-lowering therapy [1, 2]: ‡Controlling for primary events and development of MA or ON, new diabetes with patient taking glucose-lowering therapy had a 0.58 RR (95% CI, 44-0.88). | proportion diagnosed with diabetes receiving an oral glucose lowering agent or insulin ([1]; ramipril group): 2.1% | proportion of patients diagnosed to have diabetes and a documented glycated hemoglobin of 110% or more above the upper limit of normal ([1]; ramipril group): 1.8% | proportion with all criteria (diabetes, glycated hemoglobin, glucose-lowering therapy) ([1]; ramipril group): 1.3% | relative risk [RR] of new diagnosis of diabetes ([1]; ramipril group vs placebo group): 0.66 | individuals who reported a new diagnosis of diabetes (number) [1, 3]: 102 and One hundred and two | individuals who reported a new diagnosis of diabetes (proportion) [1, 3]: 3.6% | RR for diabetes in the subgroup who never took diuretics or β-blockers during the study ([1]; ramipril vs placebo): 0.62 | RR, all criteria (both) ([1]; ramipril vs placebo): 0.51 | RR, diabetes with oral glucose lowering agent or insulin (initiation of glucose-lowering therapy) ([1]; ramipril vs placebo): 0.56 | RR, diagnosis of diabetes and glycated hemoglobin 110% or more ([1]; ramipril vs placebo): 0.60 | New Diabetes With Glycated Hemoglobin ≧110% ULN, number of patients ([1]; stratum: no new MA or ON): 42 | New Diabetes With Glycated Hemoglobin ≧110% ULN, proportion (in parentheses) ([1]; stratum: no new MA or ON): 1.7 | New Diabetes With Oral Agents or Insulin and Glycated Hemoglobin ≧110% ULN, number of patients ([1]; stratum: no new MA or ON): 30 | New Diabetes With Oral Agents or Insulin and Glycated Hemoglobin ≧110% ULN, proportion (in parentheses) ([1]; stratum: no new MA or ON): 1.2 | New Diabetes With Oral Agents or Insulin, number of patients ([1]; stratum: no new MA or ON): 45 | New Diabetes With Oral Agents or Insulin, proportion (in parentheses) ([1]; stratum: no new MA or ON): 1.8 | New Diabetes, number of patients ([1]; stratum: no new MA or ON): 82 | New Diabetes, proportion (in parentheses) ([1]; stratum: no new MA or ON): 9.3 | New Diabetes With Glycated Hemoglobin ≧110% ULN, RR (95% CI) ([1]; stratum: no new MA or ON): 0.66 (0.48-0.98) | New Diabetes With Oral Agents or Insulin and Glycated Hemoglobin ≧110% ULN, RR (95% CI) ([1]; stratum: no new MA or ON): 0.80 (0.38-0.84) | New Diabetes With Oral Agents or Insulin, RR (95% CI) ([1]; stratum: no new MA or ON): 0.56 (0.39-0.81) | New Diabetes, RR (95% CI) ([1]; stratum: no new MA or ON): 0.87 (0.51-0.89) | New Diabetes With Glycated Hemoglobin ≧110% ULN, number of patients ([1]; stratum: no primary event): 45 | New Diabetes With Glycated Hemoglobin ≧110% ULN, proportion (in parentheses) ([1]; stratum: no primary event): 1.8 | New Diabetes With Oral Agents or Insulin and Glycated Hemoglobin ≧110% ULN, number of patients ([1]; stratum: no primary event): 32 | New Diabetes With Oral Agents or Insulin and Glycated Hemoglobin ≧110% ULN, proportion (in parentheses) ([1]; stratum: no primary event): 1.9 | New Diabetes With Oral Agents or Insulin, number of patients ([1]; stratum: no primary event): 54 | New Diabetes With Oral Agents or Insulin, proportion (in parentheses) ([1]; stratum: no primary event): 2.2 | New Diabetes, number of patients ([1]; stratum: no primary event): 93 | New Diabetes, proportion (in parentheses) ([1]; stratum: no primary event): 3.8 | New Diabetes With Glycated Hemoglobin ≧110% ULN, RR (95% CI) ([1]; stratum: no primary event): 0.81 (0.42-0.89) | New Diabetes With Oral Agents or Insulin and Glycated Hemoglobin ≧110% ULN, RR (95% CI) ([1]; stratum: no primary event): 0.61 (0.33-.78) | New Diabetes With Oral Agents or Insulin, RR (95% CI) ([1]; stratum: no primary event): 0.58 (0.42-0.82) | New Diabetes, RR (95% CI) ([1]; stratum: no primary event): 0.69 (0.53-0.91) | New Diabetes With Glycated Hemoglobin ≧110% ULN, number of patients ([1]; stratum: with new MA or ON): 10 | New Diabetes With Glycated Hemoglobin ≧110% ULN, proportion (in parentheses) ([1]; stratum: with new MA or ON): 2.8 | New Diabetes With Oral Agents or Insulin and Glycated Hemoglobin ≧110% ULN, number of patients ([1]; stratum: with new MA or ON): 6 | New Diabetes With Oral Agents or Insulin and Glycated Hemoglobin ≧110% ULN, proportion (in parentheses) ([1]; stratum: with new MA or ON): 1.7 | New Diabetes With Oral Agents or Insulin, number of patients ([1]; stratum: with new MA or ON): 14 | New Diabetes With Oral Agents or Insulin, proportion (in parentheses) ([1]; stratum: with new MA or ON): 3.9 | New Diabetes, number of patients ([1]; stratum: with new MA or ON): 20 | New Diabetes, proportion (in parentheses) ([1]; stratum: with new MA or ON): 5.6 | New Diabetes With Glycated Hemoglobin ≧110% ULN, RR (95% CI) ([1]; stratum: with new MA or ON): 0.47 (0.23-0.98) | New Diabetes With Oral Agents or Insulin and Glycated Hemoglobin ≧110% ULN, RR (95% CI) ([1]; stratum: with new MA or ON): 0.32 (0.13-0.79) | New Diabetes With Oral Agents or Insulin, RR (95% CI) ([1]; stratum: with new MA or ON): 0.61 (0.32-1.16) | New Diabetes, RR (95% CI) ([1]; stratum: with new MA or ON): 0.85 (0.38-1.12) | New Diabetes With Glycated Hemoglobin ≧110% ULN, number of patients ([1]; stratum: with primary event): 7 | New Diabetes With Glycated Hemoglobin ≧110% ULN, proportion (in parentheses) ([1]; stratum: with primary event): 1.9 | New Diabetes With Oral Agents or Insulin and Glycated Hemoglobin ≧110% ULN, number of patients ([1]; stratum: with primary event): 4 | New Diabetes With Oral Agents or Insulin and Glycated Hemoglobin ≧110% ULN, proportion (in parentheses) ([1]; stratum: with primary event): 1.1 | New Diabetes With Oral Agents or Insulin, number of patients ([1]; stratum: with primary event): 5 | New Diabetes With Oral Agents or Insulin, proportion (in parentheses) ([1]; stratum: with primary event): 1.3 | New Diabetes, number of patients ([1]; stratum: with primary event): 9 | New Diabetes, proportion (in parentheses) ([1]; stratum: with primary event): 2.4 | New Diabetes With Glycated Hemoglobin ≧110% ULN, RR (95% CI) ([1]; stratum: with primary event): 0.59 (0.24-1.43) | New Diabetes With Oral Agents or Insulin and Glycated Hemoglobin ≧110% ULN, RR (95% CI) ([1]; stratum: with primary event): 0.64 (0.17-1.72) | New Diabetes With Oral Agents or Insulin, RR (95% CI) ([1]; stratum: with primary event): 0.42 (0.15-1.14) | New Diabetes, RR (95% CI) ([1]; stratum: with primary event): 0.48 (0.21-0.98) | results among subgroups with different risk factors for developing diabetes (FIG. 2) ([1]; waist to hip ratio, BMI, hypertension history, β-blockers or diuretics at randomization): consistent | reduction in HbA1c levels, absolute difference (patients with diabetes): 0.2%

Vitamin E
effect on diabetes compared with placebo ([1]; 400 IU of Vitamin E, factorial design): did not differ
